Source: patent US9840500B2, “Compounds as dual inhibitors of histone methyltransferases and DNA methyltransferases” (FUNDACIÓN PARA LA INVESTIGACIÓN MÉDICA APLICADA, priority 2014, dated 2017)
Read-outs that look alike come from different tables or passages of the source.

Legend:
OCI-AML-2 = assay: Cell proliferation assay, OCI-AML-2 (AML); type: cell-based
Experimental: (§1) Cell proliferation was analyzed after 48 hours of in vitro treatment using the CellTiter 96 Aqueous One Solution Cell Proliferation Assay (Promega, Madison, Wis.). This is a colorimetric method for determining the number of viable cells in proliferation.
(§2) For the assay, suspension cells were cultured by triplicate at a density of 1×10^6 cells/ml in 96-well plates (100.000 cells/well, 100 μl/well), except for OCILY-3 and OCILY-10 cell lines which were cultured at a density of 0.5×10^6 cells/ml (50.000 cells/well, 100 μl/well) and for HepG2, Hep3B and PLC/PRF/5 cell ines which were cultured at a density of 3000 cells/well, 100 μl/well). Adherent cells were obtained from 80-90% confluent flasks and 100 μl of cells were seeded at a density of 5000 cells/well in 96-well plates by triplicate. Before addition of the compounds, adherent cells were allowed to attach to the bottom of the wells for 12 hours. In all cases, only the 60 inner wells were used to avoid any border effects.
(§3) After 48 hours of treatment, plates with suspension cells were centrifuged at 800 g for 10 minutes and medium was removed. The plates with adherent cells were flicked to remove medium. Then, cells were incubated with 100 ul/well of medium and 20 ul/well of CellTiter 96 Aqueous One Solution reagent. After 1-3 hours of incubation at 37° C., absorbance was measured at 490 nm in a 96-well plate reader. The background absorbance was measured in wells with only cell line medium and solution reagent. Data was calculated as a percentage of total absorbance of treated cell/absorbance of non treated cells.
(§4) Compounds 3-04 and 3-07 were tested against different solid tumour and oncohematological cell lines using the cell proliferation protocol described above.

U266 = assay: Cell proliferation assay, U266 (MM); type: cell-based
Experimental: as §1, §2, §3

JJN3 = assay: Cell proliferation assay, JJN3 (MM); type: cell-based
Experimental: as §1, §2, §3

LAL-CUN-2 = assay: Cell proliferation assay, LAL-CUN-2 (ALL); type: cell-based
Experimental: as §1, §2, §3

MV411 = assay: Cell proliferation assay, MV411 / MV4-11 (AML); type: cell-based
Experimental: as §1, §2, §3, §4

CEMO-1 = assay: Cell proliferation assay, CEMO-1 (ALL); type: cell-based, human
Experimental: as §1, §2, §3

BJ human fibroblasts [1] = assay: iPSC reprogramming of BJ human fibroblasts with retroviral vectors (O:S); type: cell-based; conditions: compound concentration 200 nM
DNMT1 [2] = biological target: T1, DNMT1 (Homo sapiens, UniProt P26358); assay: DNMT1 inhibition reported in the literature; type: biochemical; conditions: read-out: IC50 against DNMT1
Target sequence in this assay (P26358 whole entry, species assumed): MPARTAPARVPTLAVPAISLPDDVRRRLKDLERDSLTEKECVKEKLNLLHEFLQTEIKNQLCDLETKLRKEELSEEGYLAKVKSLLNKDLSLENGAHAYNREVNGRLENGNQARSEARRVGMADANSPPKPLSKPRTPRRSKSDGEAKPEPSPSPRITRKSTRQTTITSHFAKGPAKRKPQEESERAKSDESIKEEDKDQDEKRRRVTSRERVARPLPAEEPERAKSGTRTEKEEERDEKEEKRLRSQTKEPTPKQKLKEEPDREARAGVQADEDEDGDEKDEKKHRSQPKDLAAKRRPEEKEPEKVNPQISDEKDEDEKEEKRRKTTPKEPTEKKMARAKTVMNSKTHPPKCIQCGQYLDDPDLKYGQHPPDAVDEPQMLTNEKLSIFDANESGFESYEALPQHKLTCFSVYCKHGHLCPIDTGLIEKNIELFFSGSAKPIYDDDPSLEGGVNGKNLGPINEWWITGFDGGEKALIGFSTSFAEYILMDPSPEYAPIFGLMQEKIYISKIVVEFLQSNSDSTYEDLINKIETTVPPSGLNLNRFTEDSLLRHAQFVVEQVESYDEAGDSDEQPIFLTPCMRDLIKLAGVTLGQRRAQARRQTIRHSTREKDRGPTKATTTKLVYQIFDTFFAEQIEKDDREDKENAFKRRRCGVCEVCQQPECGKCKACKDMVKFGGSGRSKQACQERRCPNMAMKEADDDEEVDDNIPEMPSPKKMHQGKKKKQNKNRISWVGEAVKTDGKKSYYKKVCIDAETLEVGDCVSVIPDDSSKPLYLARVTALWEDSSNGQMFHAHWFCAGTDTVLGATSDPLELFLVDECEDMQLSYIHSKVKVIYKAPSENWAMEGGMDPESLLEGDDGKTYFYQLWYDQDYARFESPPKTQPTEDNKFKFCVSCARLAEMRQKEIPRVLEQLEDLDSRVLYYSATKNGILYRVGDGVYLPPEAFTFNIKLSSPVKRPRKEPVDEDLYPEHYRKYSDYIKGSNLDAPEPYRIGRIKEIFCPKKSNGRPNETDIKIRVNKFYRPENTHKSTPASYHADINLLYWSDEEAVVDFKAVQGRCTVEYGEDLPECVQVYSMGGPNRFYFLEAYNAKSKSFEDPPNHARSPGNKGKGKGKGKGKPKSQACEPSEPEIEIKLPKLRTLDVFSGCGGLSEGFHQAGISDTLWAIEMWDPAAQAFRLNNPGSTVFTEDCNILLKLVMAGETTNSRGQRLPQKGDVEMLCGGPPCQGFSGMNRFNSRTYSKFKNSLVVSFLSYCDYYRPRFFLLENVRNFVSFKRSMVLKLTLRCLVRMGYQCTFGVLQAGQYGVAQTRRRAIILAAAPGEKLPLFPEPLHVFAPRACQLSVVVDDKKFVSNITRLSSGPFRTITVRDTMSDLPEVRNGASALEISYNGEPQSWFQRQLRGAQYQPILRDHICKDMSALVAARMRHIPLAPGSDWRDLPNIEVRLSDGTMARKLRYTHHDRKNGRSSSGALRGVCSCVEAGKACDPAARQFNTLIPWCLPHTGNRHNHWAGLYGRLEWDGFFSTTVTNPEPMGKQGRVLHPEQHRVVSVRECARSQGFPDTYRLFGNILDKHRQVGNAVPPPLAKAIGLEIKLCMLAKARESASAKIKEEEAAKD

BJ human fibroblasts [3] = assay: iPSC reprogramming of BJ human fibroblasts with lentiviral vectors (O:S:K:M); type: cell-based; conditions: compound concentration 200 nM
Description: The used reprogramming system consisted in four independent doxycycline inducible lentiviral vectors (FUW-Tet-O based vectors) coding for the human OCT4 (addgene, ref#20726), SOX2 (addgene, ref#20724), KLF4 (addgene, ref#20725) and cMYC (addgene, ref#20723) transcription factors (O:S:K:M) Vesicular Stomatitis Virus G (VSVG)-coated lentiviruses were generated in 293T cells as described previously (Tiscornia et al., Nat Protoc. 2006; 1(1):241-5.). Briefly, 293T cells (ATCC, CRL-3216) were transfected with FUW-TetO lentiviral vectors referred above along with packaging plasmids psPAX2 (addgene, ref#12260) and pMD2.G (addgene, ref#12259) under the same conditions as those disclosed by Tiscornia et al, supra. […]
• Day 2: Second infection of BJ cells (same conditions that first infection). • Day 3: Replate BJ cells in 2×175 cm^2 culture flask in fresh FCM. • Day 4: Incubate 1×175 cm^2 flask with 0.2 μM or 0.1 μM of test compound and the other flask just with FCM. Compound concentrations were selected according to the determined GI50 in BJ human fibroblasts, in order to avoid cytotoxicity. […]
Reprogramming efficiency was quantified four weeks after infection. Presence of ESC-like colonies was detected by alkaline phosphatase (AP) staining using Leukocyte Alkaline Phosphatase Kit (Sigma) according to the manufacturer's protocol.

DNMT3A = DNMT3A (Homo sapiens, UniProt Q9Y6K1); assay: DNMT3A inhibition reported in the literature; type: biochemical; conditions: read-out: IC50 against DNMT3A
DNMT1 [4] = biological target: T1, DNMT1; conditions: reported in the literature (Vedadi 2011; Liu 2013); read-out: IC50 against DNMT1; cited from earlier work
Target sequence in this assay (P26358 whole entry, species assumed): as above

DNMT1 [5] = biological target: T1, DNMT1; assay: DNMT1 enzyme activity assay (TR-FRET, EPIgeneous methyltransferase assay); type: biochemical
Summary of the method: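 Human DNMT1, added at 1 nM, with 0.5% final DMSO; activity read by TR-FRET detection of the product SAH, where signal falls as SAH rises. The value is the 665/620 nm ratio, and IC50 comes from a 4-parameter inhibition fit.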
Target sequence in this assay (P26358 whole entry): as the sequence (P26358 whole entry, species assumed) above

OCI-Ly10 = assay: Cell proliferation assay, OCI-Ly10 (ABC-DLBCL); type: cell-based; conditions: Homo sapiens, 48 hours of treatment, Table 3
Experimental: as §1, §2, §3

Hep3B = assay: Cell proliferation assay, Hep3B (HCC); type: cell-based; conditions: Homo sapiens, 48 hours of treatment, Table 3
Experimental: as §1, §2, §3

PLC/PRF/5 = assay: Cell proliferation assay, PLC/PRF/5 (HCC); type: cell-based; conditions: Homo sapiens, 48 hours of treatment, Table 3
Experimental: as §1, §2, §3

human G9a enzyme = biological target: T2, human G9a enzyme (Homo sapiens, UniProt Q96KQ7); assay: G9a enzyme activity assay (TR-FRET); type: biochemical
T2 sequence (Q96KQ7 1-1210): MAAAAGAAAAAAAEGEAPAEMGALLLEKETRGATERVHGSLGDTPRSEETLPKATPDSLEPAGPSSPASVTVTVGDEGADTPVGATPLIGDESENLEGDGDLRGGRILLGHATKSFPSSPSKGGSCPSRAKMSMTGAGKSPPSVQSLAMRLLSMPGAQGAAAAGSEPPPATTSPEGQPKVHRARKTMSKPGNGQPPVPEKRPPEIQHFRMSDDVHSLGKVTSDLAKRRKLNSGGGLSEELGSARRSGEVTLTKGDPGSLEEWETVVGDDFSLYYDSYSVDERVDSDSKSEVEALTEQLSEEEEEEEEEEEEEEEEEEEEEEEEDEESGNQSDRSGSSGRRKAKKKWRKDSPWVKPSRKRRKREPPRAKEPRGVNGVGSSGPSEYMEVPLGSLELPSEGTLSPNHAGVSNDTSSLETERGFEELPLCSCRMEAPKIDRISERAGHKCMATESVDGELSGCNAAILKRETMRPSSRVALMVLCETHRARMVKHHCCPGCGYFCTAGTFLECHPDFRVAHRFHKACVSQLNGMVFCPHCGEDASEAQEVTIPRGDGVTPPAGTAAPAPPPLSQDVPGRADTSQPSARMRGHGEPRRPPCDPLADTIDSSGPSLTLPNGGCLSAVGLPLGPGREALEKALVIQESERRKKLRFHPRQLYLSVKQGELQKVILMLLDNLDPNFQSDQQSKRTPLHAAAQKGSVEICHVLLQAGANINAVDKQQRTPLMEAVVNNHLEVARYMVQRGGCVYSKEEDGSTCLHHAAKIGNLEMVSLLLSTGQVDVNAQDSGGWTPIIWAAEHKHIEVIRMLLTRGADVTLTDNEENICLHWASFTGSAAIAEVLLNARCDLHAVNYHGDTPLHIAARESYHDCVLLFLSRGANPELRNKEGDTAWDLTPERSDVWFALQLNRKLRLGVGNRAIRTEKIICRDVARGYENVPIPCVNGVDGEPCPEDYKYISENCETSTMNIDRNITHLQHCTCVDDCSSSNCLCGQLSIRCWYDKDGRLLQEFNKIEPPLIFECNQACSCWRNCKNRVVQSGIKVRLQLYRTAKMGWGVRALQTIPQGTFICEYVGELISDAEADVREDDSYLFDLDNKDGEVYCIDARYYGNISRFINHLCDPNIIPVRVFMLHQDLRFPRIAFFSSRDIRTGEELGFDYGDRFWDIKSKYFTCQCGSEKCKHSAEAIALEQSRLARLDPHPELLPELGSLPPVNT
Summary of the method: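 Sf9-expressed human G9a (added as 1 nM solution), 0.5% DMSO final, with streptavidin-XL665 at 16 μM final and europium cryptate donor. After 1 h at room temperature, the 665/620 nm ratio was read against vehicle and no-enzyme controls. IC50 from a 4-parameter inhibition fit.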

OCI-Ly3 = assay: Cell proliferation assay, OCI-Ly3 (ABC-DLBCL); type: cell-based; conditions: Homo sapiens, 48 hours of treatment, Table 3
Experimental: as §1, §2, §3

HepG2 = assay: Cell proliferation assay, HepG2 (HCC); type: cell-based; conditions: Homo sapiens, 48 hours of treatment, Table 3
Experimental: as §1, §2, §3

[6] = Homo sapiens, OCI-AML2, Table 5 comparison
[7] = Homo sapiens, U-266, Table 5 comparison
[8] = Homo sapiens, JJN-3, Table 5 comparison
[9] = Homo sapiens, MV4-11, Table 5 comparison
[10] = Homo sapiens, ALL, Table 5 comparison

Sequence of DNMT3A (Q9Y6K1 whole entry, looked up, species assumed): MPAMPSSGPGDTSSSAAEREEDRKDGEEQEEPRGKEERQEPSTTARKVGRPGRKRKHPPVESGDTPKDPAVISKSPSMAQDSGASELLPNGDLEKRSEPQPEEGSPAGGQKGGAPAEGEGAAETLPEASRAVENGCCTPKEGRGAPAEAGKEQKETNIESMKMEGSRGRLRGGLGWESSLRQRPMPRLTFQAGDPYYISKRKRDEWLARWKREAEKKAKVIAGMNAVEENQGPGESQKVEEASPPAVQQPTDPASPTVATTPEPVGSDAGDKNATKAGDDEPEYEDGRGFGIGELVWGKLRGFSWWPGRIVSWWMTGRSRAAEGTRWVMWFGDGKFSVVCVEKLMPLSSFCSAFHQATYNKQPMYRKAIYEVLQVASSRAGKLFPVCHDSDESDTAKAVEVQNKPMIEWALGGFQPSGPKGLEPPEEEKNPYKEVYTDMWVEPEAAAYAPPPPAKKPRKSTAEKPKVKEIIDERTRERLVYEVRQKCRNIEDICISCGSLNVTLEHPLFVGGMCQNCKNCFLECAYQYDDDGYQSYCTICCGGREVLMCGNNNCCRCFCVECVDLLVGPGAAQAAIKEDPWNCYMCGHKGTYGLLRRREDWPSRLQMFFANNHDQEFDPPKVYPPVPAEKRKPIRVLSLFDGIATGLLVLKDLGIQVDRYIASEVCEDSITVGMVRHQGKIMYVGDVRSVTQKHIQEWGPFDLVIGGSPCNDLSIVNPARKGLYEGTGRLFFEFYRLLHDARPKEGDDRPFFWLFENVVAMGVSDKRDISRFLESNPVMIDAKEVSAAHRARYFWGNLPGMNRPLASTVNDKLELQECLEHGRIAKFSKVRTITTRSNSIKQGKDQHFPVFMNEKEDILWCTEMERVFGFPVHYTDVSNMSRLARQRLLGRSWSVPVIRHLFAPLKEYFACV

Row | SMILES | GI50 (LAL-CUN-2; ALL, Table 5 comparison) | GI50 (OCI-AML-2; [6]) | GI50 (U266; [7]) | GI50 (JJN3; [8]) | GI50 (MV411; [9]) | GI50 (CEMO-1; [10]) | other results
1 | Nc1ncn([C@H]2C[C@H](O)[C@@H](CO)O2)c(=O)n1 [Decitabine, reference compound] | ≥ 10 µM |  |  |  |  |  | GI50 (OCI-AML-2; Table 5 comparison): ≥ 10 µM; GI50 (U266; Table 5 comparison): ≥ 10 µM; GI50 (JJN3; Table 5 comparison): ≥ 10 µM; GI50 (MV411; Table 5 comparison): ≥ 10 µM; GI50 (CEMO-1; ALL, Table 5 comparison): 0.1 to 1 µM
2 | COc1cc2nc(N3CCCN(C)CC3)nc(NC3CCN(Cc4ccccc4)CC3)c2cc1OC [BIX01294, N-(1-benzyl-4-piperidyl)-6,7-dimethoxy-2-(4-methyl-1,4-diazepan-1-yl)quinazolin-4-amine] | 1 to 10 µM | 1 to 10 µM | ≥ 10 µM | ≥ 10 µM | ≥ 10 µM | 1 to 10 µM | Folding respect to untreated (reprogramming efficiency, AP+ colonies) (BJ human fibroblasts [1]): 1.04; IC50 (DNMT1 [2]): > 100 µM; Folding respect to untreated (reprogramming efficiency, AP+ colonies) (BJ human fibroblasts [3]): 1.29; IC50 (DNMT3A): > 100 µM
3 | Nc1ncn([C@@H]2O[C@H](CO)[C@@H](O)[C@H]2O)c(=O)n1 [5-azacytidine, reference compound] | ≥ 10 µM | ≥ 10 µM | 1 to 10 µM | ≥ 10 µM | 1 to 10 µM | 1 to 10 µM | 
4 | COc1cc2c(NC3CCN(C(C)C)CC3)nc(C3CCCCC3)nc2cc1OCCCN1CCCC1 [UNC0638, 2-cyclohexyl-N-(1-isopropyl-4-piperidyl)-6-methoxy-7-(3-pyrrolidin-1-ylpropoxy)quinazolin-4-amine, reference compound] | 1 to 10 µM | 1 to 10 µM | ≥ 10 µM | ≥ 10 µM | ≥ 10 µM | 1 to 10 µM | 
5 | COc1cc2c(NC3CCN(C(C)C)CC3)nc(N3CCC(F)(F)CC3)nc2cc1OCCCN1CCCC1 [UNC0642, 2-(4,4-difluoro-1-piperidyl)-N-(1-isopropyl-4-piperidyl)-6-methoxy-7-(3-pyrrolidin-1-ylpropoxy)quinazolin-4-amine] |  |  |  |  |  |  | IC50 (DNMT1 [4]): > 50 µM
6 | COc1cc2c(NC3CCN(C4CC4)CC3)cc(-c3ccc(C)o3)nc2cc1OCCCN1CCCC1 [Compound 3-20] |  |  |  |  |  |  | IC50 (DNMT1 [5]): 0.1 to 0.5 µM; GI50 (OCI-Ly10): 0.1 to 1 µM; GI50 (Hep3B): 0.1 to 1 µM; GI50 (LAL-CUN-2; 48 hours of treatment, Table 3): 1 to 10 µM; GI50 (PLC/PRF/5): 0.1 to 1 µM; IC50 (human G9a enzyme): < 0.1 µM; GI50 (OCI-Ly3): 0.1 to 1 µM; GI50 (CEMO-1; Homo sapiens, 48 hours of treatment, Table 3): 0.1 to 1 µM; GI50 (HepG2): 0.1 to 1 µM
